{
  "source": "patent US20020194634A1",
  "about": "“Insect control system” (priority 1999, published 2002)",
  "key": {"[1]": {"system": "tobacco budworm Heliothis virescens", "conditions": "cited from earlier work"}, "[2]": {"system": "acetylcholinesterase (AchE)", "conditions": "cited from earlier work"}, "[3]": {"conditions": "budworm larvae, within 2 hours of a topical acephate application; cited from earlier work"}, "[4]": {"system": "D. melanogaster (strain yw)", "test": "5-FU feeding toxicity in D. melanogaster yw strain", "type": "in vivo, Drosophila melanogaster", "conditions": "5-FU in food", "method": "FIG. 5. Sensitivity of D. melanogaster (strain yw) to 5-FU. The yw strain is used routinely as recipient for generation of transgenic lines. Flies were reared in stadard Drosophila food supplemented with 5-FU at the indicated concentrations of 0 mM, 5 mM, 10 mM, 20 mM, 30 mM, 50 mM 5-FU. The x-axis represents time in days and the y-axis represents the number of flies. The data points represent the number of surviving flies.\nFIG. 6. Dose-dependent lethality of D. melanogaster to 5-FU. The x-axis represents 5-FU concentration in mM and the y-axis represents the number of flies. Strain yw flies that were used in the above described transformation experiment were reared in standard Drosophila food supplemented with 5-FU at the indicated concentrations and viable flies were determined after 9 days. Each data point represents the mean±standard deviation of three separate experiments, each with 100 flies.\n(§1) To evaluate the effects of 5-FU on a D. melanogaster yw strain, flies were raised first on medium containing 5-FU. Groups of 25 flies were cultured on food containing various concentrations of the drug. Four vials of each concentration of the drug were used for each experiment and three experiments were performed. The surviving flies per vial were counted over a period of time. […] No eggs were laid on food containing more than 20 mM of 5-FU."}, "[5]": {"system": "adult boll weevil Anthonomus granids Boheman", "conditions": "cited from earlier work"}, "housefly": {"system": "housefly", "conditions": "cited from earlier work"}, "[6]": {"system": "nicotinergic acetylcholine receptor (nAcR)", "conditions": "methyl group at the 3 position of the imidazole ring; cited from earlier work"}, "[7]": {"system": "non-transformed adult flies", "test": "5-FC feeding of non-transformed adult flies", "type": "in vivo, Drosophila melanogaster", "conditions": "5-FC in food", "method": "as §1\nThe effects of the pro-drug 5-FC on non-transformed adult flies were determined in a similar way."}, "CD transformed flies": {"system": "CD transformed flies", "test": "5-FC feeding of CD transformed flies", "type": "in vivo, Drosophila melanogaster", "conditions": "female CD flies compared with male CD flies, 5-FC in food", "method": "The effect of the pro-drug 5-FC on CD transformed flies was determined by raising the flies on food containing various concentrations of 5-FC."}, "[8]": {"system": "transgenic Medfly (C. capitata) carrying the cytosine deaminase transgene", "test": "5-FC susceptibility of transgenic Medfly expressing cytosine deaminase", "type": "in vivo, Ceratitis capitata", "method": "Using standard methods, a genetic construct is prepared bearing the C. capitata VG1 promoter operably linked to a cDNA encoding E. coli cytosine deaminase. The cytosine deaminase gene, when introduced into insect cells, confers sensitivity to the pro-drug 5-FC.\nThe construct is inserted into the Minos transposon using conventional techniques and, in addition, those described in U.S. Pat. No. 5,840,865. The modified transposon is then used to transform Medfly according to standard transgenesis procedures.\nTransgenic flies carrying the modified transposon are bred to create transgenic strains that express the cytosine deaminase enzyme. […] Moreover, cytosine deaminase expression is correlated with susceptibility to the pro-drug 5-FC administered in food to the flies.\nA highly susceptible strain is bred and male flies isolated. Introduction of male flies into a population of non-transgenic flies results in rapid transfer of the transgene. Female flies which are born inheriting the transgene are susceptible to 5-FC, whilst male files remain resistant."}, "[9]": {"system": "human colorectal carcinoma cells transfected with a construct expressing bacterial CD", "conditions": "CD-transfected vs untransfected colorectal carcinoma cells; cited from earlier work"}},
  "data": [
    {"smiles": "COP(=O)(NC(C)=O)SC", "note": "(stereo not drawn) [Acephate, O, S-dimethyl acetylphosphoramidothicate]", "values": [
      {"measurement": "activity of acephate versus methamidophos", "setting": "[1]", "value": "comparable activity"},
      {"measurement": "AchE inhibition (in words)", "setting": "[2]", "value": "not an AchE inhibitor"},
      {"measurement": "methamidophos formed from acephate", "setting": "[3]", "value": "small amount"}
    ]},
    {"smiles": "O=c1[nH]cc(F)c(=O)[nH]1", "note": "[5-FU, 5-fluorouracil]", "values": [
      {"measurement": "concentration in food above which no eggs were laid", "setting": "[4]", "value": "more than 20 mM"},
      {"measurement": "concentration range causing efficient killing of flies", "setting": "[4]; within 9 days", "value": "30 to 50", "unit": "mM"}
    ]},
    {"smiles": "COP(N)(=O)SC", "note": "(stereo not drawn) [methamidophos, O, S-dimethyl phosphoramidothicate]", "values": [
      {"measurement": "activity of acephate versus methamidophos", "setting": "[1]", "value": "comparable activity"},
      {"measurement": "AchE inhibition (in words)", "setting": "[2]", "value": "potent"},
      {"measurement": "fold more toxic than acephate", "setting": "[5]", "value": 75, "unit": "fold"}
    ]},
    {"smiles": "CN1CCN(Cc2ccc(Cl)nc2)C1=N[N+](=O)[O-]", "note": "[N-Me-imidacloprid]", "values": [
      {"measurement": "potency relative to imidacloprid", "setting": "housefly", "value": "as potent as imidacloprid"},
      {"measurement": "decrease in binding affinity to nAcR relative to imidacloprid", "setting": "[6]", "value": 100, "unit": "fold"}
    ]},
    {"smiles": "Nc1nc(=O)[nH]cc1F", "note": "[5-FC, 5-fluorocytosine]", "values": [
      {"measurement": "reduction in fly viability", "setting": "[7]", "value": "substantially no reduction"},
      {"measurement": "viability with increasing 5-FC", "setting": "CD transformed flies", "value": "substantial reduction in viability"},
      {"measurement": "susceptibility to 5-FC", "setting": "[8]; female Medflies inheriting the transgene", "value": "susceptible"},
      {"measurement": "susceptibility to 5-FC", "setting": "[8]; male Medflies carrying the transgene", "value": "resistant"},
      {"measurement": "fold more sensitive to 5-FC than untransfected cells", "setting": "[9]", "value": "about 600 fold"}
    ]}
  ]
}
